Nine compounds from patent US8759579B2, “Cyclobutyl sulfones as notch sparing gamma secretase inhibitors” (Merck Sharp & Dohme Corp., priority 2008, dated 2014) can be followed below.

In data set [1] the test system is Aβ40 peptides generated from SH-SY5Y cells expressing amyloid β protein (SP4CT cells). In words: APP processing AlphaLisa assay, secreted Aβ40. It counts as cell-based. The note with it: average of at least >4 replicates, read-out: AB40 IC50 AVG. As to the method:
(§1) APP Processing (Assay Quantitates Secreted Aβ Analytes from Cell Lines):
(§2) The effect of compounds on the abundance of Aβ40 and Aβ42 peptides generated from SH-SY5Y cells expressing amyloid β protein (SP4CT cells) was determined by an AlphaLisa™ assay. Analogous to an ELISA assay, generation of signal in this AlphaLisa™ assay requires “donor” and “acceptor” beads to be brought in close proximity by specific antibody recognition of either Aβ40 or Aβ42 peptides. The assay was accomplished by removing media from compound-treated SP4CT cells to two different microplates, followed by the addition of donor beads conjugated with streptavidin binding a biotinylated anti-amyloid β monoclonal antibody (clone 4G8). Acceptor beads directly conjugated with anti-Aβ40 monoclonal antibody (G210) were added to one microplate and anti-Aβ42 monoclonal antibody (12F4) acceptor beads were added to the other. Abundance of Aβ40 and Aβ42 was directly proportional to the luminescent signal generated following excitation of donor beads by laser light.
On the technique in general: Alpha assays give light when donor and acceptor beads are brought close together.

In data set [2] the target is T1, pregnane X receptor (PXR) (Homo sapiens, UniProt O75469).
T1 construct: expressed in transfected cells; host or cells: HEP G2
T1 sequence (O75469 1-434): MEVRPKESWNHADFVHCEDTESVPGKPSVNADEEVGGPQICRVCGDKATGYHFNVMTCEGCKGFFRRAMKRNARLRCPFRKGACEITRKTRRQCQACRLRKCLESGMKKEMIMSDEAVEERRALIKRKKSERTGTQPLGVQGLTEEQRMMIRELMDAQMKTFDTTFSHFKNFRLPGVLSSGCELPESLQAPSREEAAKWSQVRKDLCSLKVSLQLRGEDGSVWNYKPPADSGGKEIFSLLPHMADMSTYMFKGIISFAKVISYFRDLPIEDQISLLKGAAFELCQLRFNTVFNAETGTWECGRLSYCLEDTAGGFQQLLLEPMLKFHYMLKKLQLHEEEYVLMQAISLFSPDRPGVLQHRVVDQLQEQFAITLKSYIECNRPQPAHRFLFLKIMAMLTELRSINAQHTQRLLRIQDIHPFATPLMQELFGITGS
T1 sequence (P19793 1-462 partner): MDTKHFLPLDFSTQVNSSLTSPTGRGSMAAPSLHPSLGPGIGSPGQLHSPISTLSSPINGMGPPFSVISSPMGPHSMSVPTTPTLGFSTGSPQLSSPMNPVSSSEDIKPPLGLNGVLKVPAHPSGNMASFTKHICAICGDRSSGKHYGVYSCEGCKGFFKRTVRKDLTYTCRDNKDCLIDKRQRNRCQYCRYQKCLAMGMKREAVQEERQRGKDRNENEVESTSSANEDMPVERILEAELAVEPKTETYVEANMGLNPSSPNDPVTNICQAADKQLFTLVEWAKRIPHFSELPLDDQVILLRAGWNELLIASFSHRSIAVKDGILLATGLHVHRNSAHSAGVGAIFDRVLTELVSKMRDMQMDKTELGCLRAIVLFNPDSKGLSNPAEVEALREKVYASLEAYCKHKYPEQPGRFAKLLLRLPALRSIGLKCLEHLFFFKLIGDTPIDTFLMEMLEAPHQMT
In words: PXR assay (CYP3A4-SEAP transactivation assay, PCSTA). It counts as cell-based. Conditions: for EC50: HEP G2 cells. The source says:
The CYP3A4-SEAP transactivation assay (PCSTA) effectively and rapidly evaluates compounds for their potential to induce cytochrome P450 CYP3A (human CYP3A4 or rat CYP3A1). The reporter construct contains regulatory regions from the CYP3A4 gene positioned just upstream of a secreted alkaline phosphatase (SEAP) gene. The human PXR nuclear receptor has been modified at the 5′-end so that methionine is the initiating amino acid replacing leucine found in the wild-type sequence. HEP G2 cells are transfected with the PXR plasmid (human or rat) and the reporter plasmid. Read-out for the induction of CYP3A4 consists of a SEAP calorimetric assay with para-nitro-phenyl phosphate (pNPP) as the substrate. Five point dose-response curves in duplicate are then generated with each point corresponding to the rate of conversion of pNPP to pNP by SEAP. For the human PCSTA, rifampicin is used as the positive control and 100% induction is based upon the maximum induction produced by rifampicin at 10 μM.

A short description of data set [3]: covalent protein binding assay with liver microsomes. It is filed as in vitro ADME. The note with it: radiolabeled compound incubated with human liver microsomes. How it is done: MRK-560 and Example 2 were tested in a covalent protein binding assay which is predictive of drug toxicity. The potential of drug candidates to cause covalent binding to proteins is evaluated by incubation of the radiolabeled version of the compound in question with liver microsomes. A semi-automated method based on Brandel Harvester technique is then used to measure the formation of covalent adducts of the test compound to liver proteins binding (Ref. Day et. al, J Pharmacol Toxicol Methods. 52, 278-85, 2005).

In data set [4] the test system is Aβ42 peptides generated from SH-SY5Y cells expressing amyloid β protein (SP4CT cells). In words: APP processing AlphaLisa assay, secreted Aβ42. Conditions: average of at least >4 replicates, read-out: AB42 IC50 AVG. It is filed as cell-based. As to the method:
as §1, §2

For data set [5], the system named is gamma secretase-dependent cleavage of the Notch protein (NotchΔE) in HeLa cells. Nature of the data set: Notch processing split-luciferase assay (Notch intracellular domain release). It is filed as cell-based. The source says: Notch Processing: (Assay Quantitates Notch Intracellular Domain Release in Cell Lines):
A “split-luciferase” assay is used to measure inhibition of gamma secretase-dependent cleavage of the Notch protein. In this assay, HeLa cells were made to express a Notch protein lacking its extracellular domain (NotchΔE) fused to an N-terminal fragment of luciferase. The same cells also expressed a C-terminal fragment of luciferase fused to the immunoglobulin J kappa recombination signal sequence binding protein (RBP). Upon NotchΔE cleavage by gamma secretase, a Notch intracellular domain (NICD)-N terminal luciferase protein is generated which translocates to the nucleus and binds the RBP-C terminal luciferase fusion, bringing two independently nonfunctional halves of luciferase together to form a functional luciferase enzyme. The activity of luciferase in these cells is directly proportional to the amount of gamma secretase-cleaved Notch. Luciferase activity is determined by the standard techniques of luciferin addition to lysed cells and measurement of total luminescence.

[6] abbreviates: Homo sapiens, HeLa, average of at least >4 replicates, read-out: Notch IC50 AVG.
Setting [7] is: read-out: Notch IC50 AVG, average of at least >4 replicates.

Where two headings read alike, the source gives them in different places.

On to `O=S(=O)(N[C@H]1C[C@@](c2cc(F)ccc2F)(S(=O)(=O)c2ccc(Cl)cc2)C1)C(F)(F)F` [Example 2, N-[cis-3-[(4-chlorophenyl)sulfonyl]-3-(2,5-difluorophenyl)cyclobutyl]-1,1,1-trifluoromethanesulfonamide], for which the IC50 in data set [1] (Homo sapiens, SH-SY5Y) was found to be 42.8 nM; in data set [4] (Homo sapiens, SH-SY5Y), 38.4 nM; in data set [5] (setting [6]), 3480 nM. For the same compound, in data set [2], the “PXR % Activation @ 10 uM” value turned out to be 55.5%. Moreover, in data set [2], the half-maximal effective concentration (EC50) turned out to be 3430 nM. For the same compound, the “covalent protein binding (human microsomes)” value in data set [3] came to 380 pmol/mg.
`COC(=O)CCCN([C@H]1C[C@@](c2cc(F)ccc2F)(S(=O)(=O)c2ccc(Cl)cc2)C1)S(=O)(=O)C(F)(F)F` [Example 15, methyl 4-{[cis-3-[(4-chlorophcnyl)sulfonyl]-3-(2,5-difluorophenyl)cyclobutyl][(trifluoromethyl)sulfonyl]amino}butanoate]: the concentration for half-maximal inhibition (IC50) in data set [1] (Homo sapiens, SH-SY5Y) amounted to 51.8 nM; in data set [4] (Homo sapiens, SH-SY5Y), 51.8 nM; in data set [5] (setting [6]), 2830 nM. The same compound displayed an EC50 in data set [2] of 1210 nM.
For `O=C(O)CN([C@H]1C[C@@](c2cc(F)ccc2F)(S(=O)(=O)c2ccc(Cl)cc2)C1)S(=O)(=O)C(F)(F)F` [Example 16, N-[cis-3-[(4-chlorophenyl)sulfonyl]-3-(2,5-difluorophenyl)cyclobutyl]-N-[(trifluoromethyl)sulfonyl]glycine], the IC50 turned out to be 96.7 nM in data set [1] (Homo sapiens, SH-SY5Y); 67.9 nM in data set [4] (Homo sapiens, SH-SY5Y); 32000 nM in data set [5] (setting [6]). Besides, the “PXR % Activation @ 10 uM” value in data set [2] is 100%. The compound also showed an EC50 in data set [2] of 1010 nM.
As to `C[C@]1(NS(=O)(=O)C(F)(F)F)C[C@@](c2cc(F)ccc2F)(S(=O)(=O)c2ccc(Cl)cc2)C1` [Example 17, N-[cis-3-[(4-chlorophenyl)sulfonyl]-3-(2,5-difluorophenyl)-1-methylcyclobutyl]-1,1,1-trifluoromethanesulfonamide], the 50% inhibitory concentration (IC50) in data set [1] (Homo sapiens, SH-SY5Y) was 37.3 nM; in data set [4] (Homo sapiens, SH-SY5Y), 37 nM; in data set [5] (setting [6]), 5210 nM. The “PXR % Activation @ 10 uM” value in data set [2] is on record as 74.6%. Besides, in data set [2], the EC50 is 848 nM.
Turning to `CC1(NS(=O)(=O)C(F)(F)F)CC(c2cc(F)ccc2F)(S(=O)(=O)c2ccc(C(F)(F)F)cc2)C1` (stereo not drawn) [Example 18, N-(cis-3-(2,5-difluorophenyl)-1-methyl-3-{[4-(trifluoromethyl)phenyl]sulfonyl}cyclobutyl)-1,1,1-trifluoromethanesulfonamide], the half-inhibitory concentration (IC50) was found to be 60.8 nM in data set [1] (Homo sapiens, SH-SY5Y); 65.4 nM in data set [4] (Homo sapiens, SH-SY5Y); 4470 nM in data set [5] (setting [6]). Moreover, the “PXR % Activation @ 10 uM” value in data set [2] is 75.5%. In data set [2], this compound registered a concentration for a half-maximal effect (EC50) of 3090 nM.
For `O=S(=O)(N([C@H]1C[C@@](c2cc(F)ccc2F)(S(=O)(=O)c2ccc(Cl)cc2)C1)S(=O)(=O)C(F)(F)F)C(F)(F)F` [Example 19, N-[cis-3-[(4-chlorophenyl)sulfonyl]-3-(2,5-difluorophenyl)cyclobutyl]-1,1,1-trifluoro-N-[(trifluoromethyl)sulfonyl]methanesulfonamide], the IC50 in data set [1] (Homo sapiens, SH-SY5Y) came out at 62.6 nM; in data set [4] (Homo sapiens, SH-SY5Y), 48.7 nM; in data set [5] (setting [6]) it was 5680 nM. The “PXR % Activation @ 10 uM” value in data set [2] turned out to be 89.1%. The compound also had a 50% effective concentration (EC50) in data set [2] of 1250 nM.
In the case of `O=S(=O)([N-][C@H]1C[C@@](c2cc(F)ccc2F)(S(=O)(=O)c2ccc(Cl)cc2)C1)C(F)(F)F.[Na+]` [Example 20, Sodium [cis-3-[(4-chlorophenyl)sulfonyl]-3-(2,5-difluorophenyl)cyclobutyl][(trifluoromethyl)sulfonyl]azanide], the IC50 is 61.2 nM in data set [1], 53.2 nM in data set [4] and 1770 nM in data set [5] (setting [7]). In addition, the “PXR % Activation @ 10 uM” value in data set [2] is reported as 71.9%. For the same compound, the EC50 in data set [2] is 2890 nM.
On to `O=S(=O)([N-][C@H]1C[C@@](c2cc(F)ccc2F)(S(=O)(=O)c2ccc(Cl)cc2)C1)C(F)(F)F.[K+]` [Example 21, Potassium [cis-3-[(4-chlorophenyl)sulfonyl]-3-(2,5-difluorophenyl)cyclobutyl][(trifluoromethyl)sulfonyl]azanide], for which the IC50 in data set [1] was determined as 64.9 nM; in data set [4], 70.9 nM; in data set [5] (setting [7]), 2130 nM. For the same compound, in data set [2], the “PXR % Activation @ 10 uM” value stood at 64.4%. Moreover, the EC50 in data set [2] stood at 3380 nM.
In the case of `O=S(=O)(N[C@H]1C[C@@](c2cc(F)ccc2F)(S(=O)(=O)c2ccc(OC(F)(F)F)cc2)C1)C(F)(F)F` [Example 22, N-[cis-3-[(4-trifluoromethoxyphenyl)sulfonyl]-3-(2,5-difluorophenyl)cyclobutyl]-1,1,1-trifluoromethanesulfonamide], the IC50 amounted to 250 nM in data set [1] (Homo sapiens, SH-SY5Y); 237 nM in data set [4] (Homo sapiens, SH-SY5Y); 5200 nM in data set [5] (setting [6]). In addition, the “PXR % Activation @ 10 uM” value in data set [2] came to 50.6%. In addition, the EC50 in data set [2] was 9650 nM.

A word on the IC50: it is the midpoint of a concentration-inhibition curve. Broadly, the EC50 is the concentration needed to bring the measured effect to its halfway point. The low end stands for greater potency, the high end for weaker potency.
